Data published in the supplement of paper PMC10307832.

Assays:
Assay in all cases: relative viability (nuclei count vs DMSO), 5 days (fraction); higher = more cells survive
Tanzisertib = compound: O[C@H]1CC[C@H](Nc2ncc3nc(Nc4c(F)cc(F)cc4F)n([C@H]4CCOC4)c3n2)CC1 [Tanzisertib]
How it was run: (§1)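 Vehicle-anchored 1536-well plates of lung cancer cell lines, held overnight at 37 °C, were pinned with five library-drug doses (not always all listed) spaced by √10. No medium change followed over the next 5 days, after which the cells were fixed, permeabilised and Hoechst-stained together and imaged at 4×. Nuclei were counted with MetaXpress, and viability is treated-well nuclei over vehicle-well nuclei, taken as a median across plates. Plates passed with control CV below 25% and at least one doubling.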

[1] = compound: C[C@@H](N)c1ccc(C(=O)Nc2ccnc3[nH]ccc23)cc1
How it was run: as §1

[2] = compound: C1CNCCC1C2=CC(=NN2)C3=CC=NC=C3
How it was run: as §1

| Cell Line | relative viability (Tanzisertib; 0.08 µM) | relative viability (Tanzisertib; 0.253 µM) | relative viability (Tanzisertib; 0.8 µM) | relative viability (Tanzisertib; 2.53 µM) | relative viability (Tanzisertib; 8 µM) | relative viability ([1]; 0.04 µM) | relative viability ([1]; 0.1265 µM) | relative viability ([1]; 0.4 µM) | relative viability ([1]; 1.265 µM) | relative viability ([1]; 4 µM) | relative viability ([2]; 0.08 µM) | relative viability ([2]; 0.8 µM) | relative viability ([2]; 2.53 µM) | relative viability ([2]; 8 µM) |
| --- | --- | --- | --- | --- | --- | --- | --- | --- | --- | --- | --- | --- | --- | --- |
| COR-L23 | 1.06 | 1.04 | 1.07 | 1.06 | 1.04 | 0.913 | 1.17 | 0.941 | 0.878 | 0.646 | 1.02 | 1.19 | 0.991 | 0.982 |
| NCI-H1993 | 1.06 | 0.952 | 0.969 | 0.822 | 0.786 | 0.989 | 1.1 | – | 0.9 | 0.996 | 0.889 | 0.911 | 0.978 | 1.02 |
| NCI-H2405 | 1.12 | 1.02 | 1.1 | 1.04 | 0.695 | 0.653 | 1.16 | 0.998 | 0.569 | 0.376 | 1.04 | 0.901 | 1.02 | 0.961 |
| NCI-H2126 | 1.01 | 1.08 | 1.03 | 0.983 | 0.893 | 1.06 | 0.999 | 0.994 | 0.889 | 1.1 | 0.944 | 0.969 | 1.06 | 1.02 |
| NCI-H1944 | 1.14 | 0.966 | 0.971 | 1 | 0.86 | 1.01 | 0.987 | 1.02 | 0.822 | 0.793 | 0.903 | 0.964 | 0.987 | 1.01 |
| NCI-H2342 | 1.09 | 1.09 | 0.945 | 0.845 | 0.959 | 1.03 | 1.06 | 1.04 | 1.21 | 0.927 | 0.919 | 0.965 | 1.03 | 1.16 |
| NCI-H358 | 1.12 | 0.912 | 0.865 | 0.938 | 0.581 | 0.912 | 0.925 | 0.921 | 0.86 | 0.754 | 0.902 | 0.994 | 1.02 | 0.822 |
| NCI-H1734 | 1.25 | 1.01 | 0.945 | 1.06 | 0.927 | 0.833 | 1.08 | 0.929 | 0.568 | 0.819 | 0.945 | 1.01 | 1.05 | 0.968 |
| A-427 | 0.997 | 0.998 | 1.07 | 1.08 | 0.789 | 0.862 | 1.07 | 0.975 | – | 0.906 | 0.953 | 1.05 | 0.984 | 1.05 |
| RERF-LC-KJ | 1.13 | 1 | 1.01 | 0.972 | 0.87 | 1.02 | 1.01 | 1.16 | 1.08 | 1.02 | 0.868 | 1.01 | 1.03 | 0.943 |
| NCI-H727 | 0.918 | 0.901 | 1.01 | 0.887 | 0.944 | 1.02 | 1.17 | 1.25 | 0.932 | 1.3 | 0.874 | 0.942 | 1.05 | 1.22 |
| LCLC-97TM1 | 1.03 | 0.997 | 1.03 | 0.941 | 0.59 | 1.18 | 0.868 | 1.16 | 0.843 | 0.983 | 1.05 | 0.884 | 1.33 | 0.947 |
| BEN | 0.977 | 1.01 | 0.997 | 1.08 | 0.832 | 0.927 | 0.954 | 1.04 | 1.01 | 0.718 | 0.825 | 0.888 | 0.984 | 1.04 |
| NCI-H2023 | 1.1 | 0.958 | 1 | 0.907 | 0.899 | 1.04 | 1.06 | 1.12 | 0.942 | 1.02 | 0.821 | 1.1 | 1.08 | 1 |
| LC-2-ad | 1.1 | 1.03 | 1.09 | 1.03 | 0.506 | 0.916 | 0.916 | 1.02 | 0.719 | 0.838 | 0.978 | 1.09 | 1 | 0.964 |
| ABC-1 | 1.03 | 0.995 | 0.882 | 1 | 0.957 | 0.767 | 1.07 | 0.918 | 0.579 | 0.901 | 0.975 | 0.817 | 1.07 | 1.02 |
| NCI-H647 | 1.21 | 0.976 | 0.973 | 1.12 | 0.779 | 0.992 | 0.955 | 0.916 | 0.694 | 0.811 | 1.02 | 0.947 | 1 | 0.868 |
| NCI-H1755 | 1.02 | 0.958 | 1 | 0.97 | 0.961 | 0.911 | 0.987 | 0.945 | 0.937 | 0.793 | 1.01 | 0.915 | 1.03 | 0.948 |
| EPLC-272H | 1.14 | 0.95 | 1.09 | 0.908 | 0.761 | 0.9 | 0.973 | 1.11 | 0.356 | 0.791 | 0.902 | 0.94 | 0.929 | 0.98 |
| NCI-H1437 | 1 | 1.06 | 1.04 | 1.02 | 1.04 | 1.04 | 1.03 | 1.08 | 0.968 | 0.987 | 0.974 | 1.07 | 1 | 0.99 |
| EKVX | 1.08 | 1.05 | 0.96 | 0.901 | 0.723 | 1.09 | 1.12 | 1.12 | 0.811 | 0.885 | 1.03 | 0.877 | 1.12 | 0.989 |
| NCI-H1651 | 1.03 | 1.01 | 0.933 | 0.886 | 0.92 | 1.02 | 1 | 1.07 | 1.13 | 1.09 | 0.956 | 1.01 | 0.989 | 0.967 |
| HCC-15 | 1.16 | 1 | 1.04 | 0.944 | 0.768 | 1.03 | 0.971 | 1.02 | 0.623 | 0.908 | 0.987 | 1.1 | 0.98 | 0.939 |
| LCLC-103H | 1.1 | 1.05 | 1.12 | 1 | 1.04 | 1.01 | 0.964 | 0.971 | 0.917 | 0.81 | 1.06 | 0.873 | 0.919 | 0.98 |
| NCI-H23 | 1.18 | 1.01 | 1.06 | 0.998 | 0.43 | 0.895 | 0.999 | 1.12 | – | 0.826 | 0.866 | 0.988 | 1.26 | 1.14 |
